Experimental data from US4154967A, “Process for preparation of phenols” (Mitsui Petrochemical Industries, Ltd., priority 1976, dated 1979).

Assay: physchem
Settings: ethanol-water

| Compound | pKa |
| --- | --- |
| Sc1cc(Cl)c(Cl)cc1Cl [2,4,5-trichlorophenyl mercaptan] | 4.2 |
| O=[N+]([O-])c1ccc(S)c([N+](=O)[O-])c1 [2,4-dinitrophenyl mercaptan] | 4 |
| FC(F)(F)c1ccc(Cl)c(S)c1 [2-chloro-5-trifluoromethylphenyl mercaptan] | 6 |
| Sc1ccc(Cl)c(Cl)c1 [3,4-dichlorophenyl mercaptan] | 6.2 |
| Sc1cc(Cl)cc(Cl)c1 [3,5-dichlorophenyl mercaptan] | 5.8 |
| FC(F)(F)c1cc(S)ccc1Cl [3-trifluoromethyl-4-chlorophenyl mercaptan] | 6.2 |
| CC(=O)c1cccc(S)c1 [meta-acetyl phenyl mercaptan] | 6.9 |
| Sc1cccc(Br)c1 [meta-bromophenyl mercaptan] | 6.8 |
| Sc1cccc(Cl)c1 [meta-chlorophenyl mercaptan] | 6.7 |
| N#Cc1cccc(S)c1 [meta-cyanophenyl mercaptan] | 6.3 |
| Fc1cccc(S)c1 [meta-fluorophenyl mercaptan] | 6.8 |
| Sc1cccc(I)c1 [meta-iodophenyl mercaptan] | 6.8 |
| O=S(=O)(O)c1cccc(S)c1 [meta-mercaptobenzenesulfonic acid] | 5.9 |
| CS(=O)(=O)c1cccc(S)c1 [meta-methylsulfonylphenyl mercaptan] | 5.9 |
| O=[N+]([O-])c1cccc(S)c1 [meta-nitrophenyl mercaptan] | 5.9 |
| O=C(O)c1ccccc1S [orthocarboxyphenyl mercaptan] | 5.6 |
| CC(=O)c1ccc(S)cc1 [para-acetyl phenyl mercaptan] | 5.9 |
| Sc1ccc(Br)cc1 [para-bromophenyl mercaptan] | 7 |
| O=C(O)c1ccc(S)cc1 [para-carboxyphenyl mercaptan] | 5.9 |
| Sc1ccc(Cl)cc1 [para-chlorophenyl mercaptan] | 7 |
| N#Cc1ccc(S)cc1 [para-cyanophenyl mercaptan] | 6 |
| Fc1ccc(S)cc1 [para-fluorophenyl mercaptan] | 7.5 |
| Sc1ccc(I)cc1 [para-iodophenyl mercaptan] | 6.9 |
| O=S(=O)(O)c1ccc(S)cc1 [para-mercaptobenzenesulfonic acid] | 5.7 |
| CS(=O)(=O)c1ccc(S)cc1 [para-methylsulfonylphenyl mercaptan] | 5.6 |
| Sc1c(Cl)c(Cl)c(Cl)c(Cl)c1Cl [pentachlorophenyl mercaptan] | 3.5 |
| Fc1c(F)c(F)c(S)c(F)c1F [pentafluorophenyl mercaptan] | 2.7 |
| O=C(S)c1ccccc1 [thiobenzoic acid] | 6.3 |
